Data from patent US20220257601A1, “INHIBITORS OF PRC1 FOR TREATMENT OF CANCER” (Board of Regents, The University of Texas System, priority 2019, published 2022).
Values joined by “and” are separate entries in the source; they are usually repeats but may differ in a detail not shown here. Identical values can stand only once. Like-named read-outs stand apart in the source and are kept apart here.

Assays:
[1] = system: PC3 cells; test: Tumor sphere assay, PC3 cells; assay type: cell-based, human; settings: for IC50: Homo sapiens, PC-3, read-out: Inhibition of sphere formation ability normalized to control groups, IC50
Method: (§1) Single cell suspensions of LNCaP, DU145, PC3, PC3M or RM1 cells (1,000 cells/ml) were plated on ultra-low attachment plates and cultured in serum-free PrEGM (Lonza) supplemented with 1:50 B27, 20 ng/ml bFGF and 40 ng/ml EGF for 10 days. Tumor spheres were visualized under phase contrast microscope, photographed, and counted. For serial passage, tumor spheres were collected using 70-μm cell strainers and dissociated with ACCUTASE® for 30 min at 37° C. to obtain single-cell suspensions.

[2] = target: T1, PRC1 (Homo sapiens, UniProt Q99496); test: Inhibition of H2Aub (monoubiquitylation of histone H2A) in PC3 cells; assay type: cell-based
T1 construct: PC3 cells were exposed to drugs for the indicated hours; endogenous in cells; host or cells: PC3 cells
T1 sequence (Q99496 2-336 limits assumed): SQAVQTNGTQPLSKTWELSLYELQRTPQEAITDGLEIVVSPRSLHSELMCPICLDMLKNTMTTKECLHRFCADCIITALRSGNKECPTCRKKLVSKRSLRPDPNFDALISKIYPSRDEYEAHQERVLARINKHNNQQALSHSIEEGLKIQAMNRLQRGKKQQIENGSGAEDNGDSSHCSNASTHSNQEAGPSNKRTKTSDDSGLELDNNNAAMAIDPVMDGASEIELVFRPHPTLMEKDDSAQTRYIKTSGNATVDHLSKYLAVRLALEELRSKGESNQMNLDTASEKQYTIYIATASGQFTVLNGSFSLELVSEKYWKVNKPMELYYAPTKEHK
Method: (§2) For immunoblotting, cells were washed with PBS and lysed in RIPA buffer (50 mM Tris-HCl pH 7.4, 150 mM NaCl, 1 mM EDTA, 1% Triton X-100, 1% sodium deoxycholate, and 0.1% SDS) supplemented with protease inhibitors (Calbiochem) and phosphatase inhibitors (PhosSTOP, Roche Life Science). Protein concentrations were measured by using the DC Protein Assay. Total RNA was extracted using the RNeasy Mini kit coupled with RNase-free DNase set (Qiagen) and reverse transcribed with SuperScript III First-Strand Synthesis SuperMix (Invitrogen). cDNA corresponding to approximately 10 ng of starting RNA was used for one reaction. Q-PCR was performed with Taqman Gene Expression Assay (Applied Biosystems). All quantifications were normalized to endogenous GAPDH.
PC3 cells were exposed to drugs for the indicated hours, then harvested using […] EDTA in PBS, and washed once with cold PBS. Nuclear extracts were prepared and histones were extracted using 0.4N sulfuric acid. H2A or ubH2A was measured using the indicated antibodies.

[3] = system: Pten^pc−/−Smad4^pc−/− cells; test: Multi-organ metastasis in FVB/NJ mice inoculated intracardially with Pten pc-/- Smad4 pc-/- cells; assay type: in vivo, mouse; settings: for Numbers of TAMs and Tregs in bone lesions: on-treatment staining of bone lesions
Method: (§3) For localized tumor growth assay, cells were resuspended in 100 μl PBS with Matrigel in 1:1 ratio and subcutaneously injected into both rear flanks. The volume of the s.c. xenograft was calculated as V=L×W^2/2, where L and W stand for tumor length and width, respectively. For experimental metastasis assays, cells were resuspended in 100 μl 1×PBS and intracardially injected into the left ventricle with a 26 G tuberculin syringe. For bone colonization, RM1 cells were resuspended 100 μl 1×PBS and injected into the intra-femoral artery. Metastatic burden was detected through non-invasive bioluminescence imaging of experimental animals using an IVIS Spectrum.
(§4) To investigate the effect of drug treatment, compounds or antibodies were delivered twice every week or every three days through i.p. injection except BLZ945, which was delivered orally. Bioluminescence signal was measured using the ROI tool in Living Image 4.4 software (PerkinElmer).
(§5) For bioluminescent imaging, mice were anesthetized and injected with 1.5 mg of D-luciferin retro-orbitally at the indicated times. Animals were imaged in an IVIS® 100 chamber within 5 min after D-luciferin injection, and data were recorded using LIVING IMAGE® software (Xenogen). To measure bone colonization after intracardiac injection, photon flux was calculated by using the ROI tool in the LIVING IMAGE® software. Bone metastases were further confirmed by X-Ray imaging. Mice were anesthetized with ketamine (100 mg/kg) and xylazine (10 mg/kg), placed on digital X ray Film (Scan X) and exposed at 25 kV for 15 s using a Faxitron instrument (Model MX-20; Faxitron Corp. Buffalo, Ill.).
(§6) The tissue sections were deparaffinized with EZPrep buffer (Ventana Medical Systems), antigen retrieval was performed with CC1 buffer (Ventana Medical Systems). Sections were blocked for 30 minutes with Background Buster solution (Innovex), followed by avidin-biotin blocking for 8 minutes (Ventana Medical Systems) (except for slides stained with CD4 and NKp46 antibodies). Sections were incubated with anti-RNF2, anti-BMI1, anti-Ki67, anti-Cleaved Caspase 3, anti-CD11b, anti-CD68, anti-CD8, anti-CD31, anti-B220, anti-FoxP3, anti-CD4, or anti-NKp46 for 5 hours, followed by 60 minutes incubation with biotinylated horse anti-rabbit IgG at 1:200 dilution (for Ki67, Cleaved Caspase 3, CD11b and CD8) or biotinylated goat anti-rat IgG at 1:200 dilution (for CD31, B220 and FoxP3) or biotinylated horse anti-goat IgG at 1:200 dilution (for CD4 and NKp46). The detection was performed with DAB detection kit (Ventana Medical Systems) according to manufacturer instruction. Slides were counterstained with hematoxylin and coverslipped with PERMOUNT™ (Fisher Scientific).
For iNOS/CD68 or Arg1/CD68 staining, first, slides were incubated with anti-iNOS or anti-Arg1 for 5 hours, followed by 60 minutes incubation with biotinylated goat anti-rabbit IgG at 1:200 dilution. The detection was performed with Streptavidin-HRP D (part of DABMap kit, Ventana Medical Systems), followed by incubation with Tyramide Alexa Fluor 488 prepared according to manufacturer instruction with predetermined dilutions. Next, sections were incubated with anti-CD68 for 5 hours, followed by 60 minutes incubation with biotinylated goat anti-rabbit IgG at 1:200 dilution. The detection was performed with Streptavidin-HRP D (part of DABMap kit, Ventana Medical Systems), followed by incubation with Tyramide Alexa CF 594 prepared according to manufacturer instruction with predetermined dilutions. After staining slides were counterstained with DAPI for 10 min and coverslipped with MOWIOL®.
At the end point in vivo experiment, blood and bone marrow cells were collected from each mouse and treated with Red Blood Cell lysis buffer for 5 minutes. Cells were then washed once with RPMI supplemented 2% FBS, stained with indicated antibodies and analyzed by FACS.

[4] = system: PC3 cells; test: Bone metastasis after intracardiac injection of PC3 cells in male nude mice; assay type: in vivo, mouse; settings: for Outgrowth of macroscopic bone lesions (bioluminescent imaging): data not shown
Method: as §3, §4, §5, §6

[5] = system: RNF2 target genes (CCL2, CXCL1, LGR5, NTS, ATF3); test: Quantitative RT-PCR of RNF2 target genes in PC3 or RM1 cells; assay type: cell-based; settings: 0.5 and 1.0 μM; compared with RNF2 silencing
Method: as §2

[6] = target: T2, RNF2-PRC1 complex (Homo sapiens, UniProt Q99496); test: In vitro ubiquitination assay (cell-free system); assay type: biochemical; settings: data not shown
T2 construct: RNF2-PRC1 complex was immunoprecipitated from one 15 cm plate of PC3 cells; endogenous in cells; host or cells: PC3 cells (immunoprecipitate)
T2 sequence (Q99496 2-336 limits assumed): T1 sequence (Q99496 2-336 limits assumed)
Method: RNF2-PRC1 complex was immunoprecipitated from one 15 cm plate of PC3 cells. After extensive washing, the complex was pre-incubated with drugs at 4° C. for 30 minutes. UBCH5c, E1, were from Boston Biochem. Reactions were performed in 30 μl of ubiquitilation buffer (50 mM Tris, pH 7.5, 2.5 mM MgCl2, 0.5 mM DTT) containing ubiquitin-activating enzyme 100 ng E1, 200 ng UBCH5c, 10 μg ubiquitin, 0.2 mM ATP, 1 μg H2A, and the indicated PNF2-PRC1 complex. After incubated at 37° C. for 60 min, the reactions were then stopped by the addition of Laemmli sample buffer, and proteins were resolved by SDS-PAGE and immunoblotted using H2A antibody.

[7] = system: PC3 cells; test: Cell growth under standard culture conditions; assay type: cell-based, human; settings: concentrations up to 1 μM, data not shown
Method: Control and RNF2-silenced PC3 cells were plated at 1×10^3 per well in 96 well plates for 24 hours. After 24 hours, cells were incubated in 0.5 mg/ml MTT (Invitrogen) for 2 h at 37° C. MTT crystals were dissolved in DMSO and absorbance was measured in a plate reader at 540 nm.
The candidate library was provided by the Organic Synthesis Core Facility from MSKCC. The testing concentration of candidate compounds on PC3 cells was 1 μM. RNF2 target gene expression change was used as a readout for the first round screen. Cell viability, tumor sphere formation assay and histone modification change were then used to further confirm the activity of the candidate compound.

[8] = system: PC3 cells; test: Gene expression changes and pathway analysis compared with RNF2 silencing; assay type: cell-based, human; settings: compared with 2 and RNF2 silencing; data not shown
Method: Data were analyzed in Partek. Total RNAs were isolated from PC3 cells. Libraries were prepared suing the standard methodology from Illumina. Generated libraries were run on a HiSeq2500 system. Raw reads were quality-checked and subsequently mapped to the human genome (hg19) using Tophat2 (2.2.4) using default settings (Langmead and Salzberg, 2012). Differential gene expression was analyzed using the DESeq2 (1.8.1) package in R using default settings (Love et al., 2014). Gene set enrichment analysis (GSEA) (Subramanian et al., 2005) was performed on a pre-ranked gene list that generated based on the gene expression changes between the RNF2 knockdown and control cells. […] Heatmap analysis was performed to show the gene expression patterns between the RNF2 knockdown and control repeats, using heatmap3 R package with ward2 as distance function. Gene expressions in the heatmap were transformed in logarithm scale and normalized accordingly.

[9] = system: RM1 cells; test: Metastasis in C57BL/6 mice injected with RM1 cells; assay type: in vivo, mouse
Method: as §3, §4
For bioluminescent imaging, mice were anesthetized and injected with 1.5 mg of D-luciferin retro-orbitally at the indicated times. Animals were imaged in an IVIS® 100 chamber within 5 min after D-luciferin injection, and data were recorded using LIVING IMAGE® software (Xenogen). To measure bone colonization after intracardiac injection, photon flux was calculated by using the ROI tool in the LIVING IMAGE® software. […]

[10] = system: RM1 cells; test: Tumor sphere assay, RM1 cells; assay type: cell-based, mouse; settings: data not shown
Method: as §1

[11] = PC3 cells, read-out: Inhibition of H2Aub normalized to control groups, IC50
[12] = bone metastatic sites, Pten/Smad4 and RM1 models
[13] = PC3 cells, titration experiments

O=C1C(=Cc2cccnc2)C(=O)c2ccccc21 [Compound 2, 2-(pyridin-3-ylmethylene)-1H-indene-1,3(2H)-dione, reference compound]
IC50 ([1]; PC3 cells): 1.05 µM | Concentration at which growth of oncospheres was inhibited ([1]; inhibited only at this concentration): 25 µM | Concentration at which PRC1 activity was inhibited, assessed by monoubiquitylation of histone H2A [2]: 25 µM | IC50 [2, 11]: 3.52 µM | Number of M1-like macrophages [3, 12]: increases the number of M1-like antigen presentation-competent macrophages | Numbers of TAMs and Tregs in bone lesions ([3]; Pten/Smad4 and RM1 models): suppresses the recruitment of total TAMs

CNC(=O)c1cc(Oc2ccc3nc(N[C@@H]4CCCC[C@H]4O)sc3c2)ccn1 [BLZ945, reference compound]
Outgrowth of macroscopic bone lesions (bioluminescent imaging) [4]: effectively inhibit the outgrowth of macroscopic bone lesions

Nc1ccc(CCN2C(=O)c3c(F)c(F)c(F)c(F)c3C2=O)cc1 [Compound 1]
Downregulation or upregulation of key PRC1 targets (RT-qPCR) [5]: as effectively as silencing of RNF2 | Inhibition of RNF2-mediated H2AUb [6]: inhibited RNF2-mediated H2AUb in a dose-dependent fashion | Inhibition of cell growth [7]: did not inhibit cell growth | IC50 ([1]; PC3 cells): 0.13 µM | Inhibition of sphere formation, fold more efficient as compared to 2 [1, 13]: > 7.5 fold | Inhibition of H2AUb, fold more efficient as compared to 2 [2, 13]: > 7.5 fold | IC50 [2, 11]: 0.47 µM | Inhibition of PRC1 activity relative to 3 (PTC209) ([2]; data not shown): more effectively as compared to 3 | IC50 ([2]; inhibitor of RNF2, read-out: Apparent IC50 in cells and on target): ~0.47 µM and ~0.5 µM | Multi-organ metastasis (bioluminescent imaging) ([3]; 1 at 10 mg/kg, DCIT = anti-CTLA4 + anti-PD-1): only inhibited this process | Number of M1-like macrophages [3, 12]: increases the number of M1-like macrophages | Percentage of M2-like TAMs (CD68 and Arg1/iNOS double staining) [3, 12]: dramatically decreases the percentage of M2-like TAMs | Numbers of TAMs and Tregs in bone lesions ([3]; Pten/Smad4 and RM1 models): reduces the numbers of TAMs and Tregs | Numbers of MDSCs and TAMs (FACS) ([3]; peripheral blood and bone marrow): reduces the numbers of MDSCs and TAMs | Gene expression changes in cancer-relevant pathways [8]: changes larger than those caused by 2 and by RNF2 silencing | Formation of bone metastases ([4]; 25 mg/kg, treatment from day 7, 2×/week): prevented formation of bone metastases | Expansion of bone macrometastases ([4]; 25 mg/kg, treatment from day 21, 2 weeks of treatment): significant suppression of their expansion | Nuclear H2AUb levels in bone sections (IHC) ([4]; bone sections of treated mice): substantially decreases | Secretion of CCL2 in the tumor microenvironment (IHC) ([4]; bone sections of treated mice): substantially decreases | Outgrowth of bone, brain and liver metastases ([9]; C57BL/6 mice, data not shown): inhibited the outgrowth of bone, brain and liver metastases | FACS analysis of leukocytes from peripheral blood ([9]; treated mice): significant decrease of macrophages and increase of T cells and NK cells | Inhibition of tumor sphere [10]: inhibited tumor sphere to a similar extent

Cc1ccc2c(c1)C1(CCN(CCc3nc(-c4ccccc4)oc3C)CC1)OC(=O)N2 [RS504393, reference compound]
Outgrowth of macroscopic bone lesions (bioluminescent imaging) [4]: effectively inhibit the outgrowth of macroscopic bone lesions
